The text below walks through data of patent publication US6027747A, “Process for the production of dry pharmaceutical forms and the thus obtained pharmaceutical compositions” (priority 1998, dated 2000).

Molecules are shown by their SMILES. Where “and” joins values, the source holds several entries; their conditions need not be identical. Identical values can stand only once.

A short description of this series: Kinetics of dissolution of fenofibrate (UV 278 nm). Format: physicochemical. The following applies: for kinetics of dissolution of fenofibrate: 5 mg/l, one value per dish, Dish 1 to 6 in order. On the procedure: The system of measurements used for the galenical control of the solid dispersions was made of two members: an apparatus of dissolution DISSOLUTEST DT 6 from ERWEKA [Euraf 55 rue Deschanel 92400 Courbevoie (France)] and a peristaltic pump 505 SR WATSON-MARLOW from Prolabo. Each test of dissolution was performed in one liter of degassed distilled water at 37° C. and at a pH near neutral. A sample of 4 mg of estradiol (i.e. 25 mg co-precipitate) was introduced in each of the six reactors at time t=0 and the speed of stirring of the paddles was 100 rounds/min. The dosages by UV (absorption at 278 nm) were performed continuously and in a closed circuit of a multi-channel peristaltic pump, connecting the beakers of the Dissolutest to the dishes of the spectrophometer. The latter was linked to a recorder and to a printing machine to permit the measurement at steady intervals of every 3 minutes of the variations of the optical density, themselves being proportional to the variations of the concentration of the active ingredient in the dissolution medium.
This was identical to that used for the study of the kinetics of dissolution for the co-precipitates of estradiol.
Therefore, it had been decided to prepare a calibrating range at 5 mg/l as for progesterone and to determine the kinetics of dissolution while introducing an equivalent amount of co-precipitate.

On to `CC(C)OC(=O)C(C)(C)Oc1ccc(C(=O)c2ccc(Cl)cc2)cc1` [Fenofibrate], for which the “kinetics of dissolution of fenofibrate” value was 0 (0 min); 95.26 and 98.94 and 93.68 and 94.21 and 93.15 (3 min); 92.1 and 95.78 and 91.05 and 90.52 (6 min); 87.89 and 91.05 and 86.31 and 85.78 (9 min); 83.68 and 86.31 and 82.1 and 83.15 and 80.52 (12 min); 80.52 and 83.15 and 78.42 and 80 and 76.84 (15 min). Besides, the “kinetics of dissolution of fenofibrate” value is, setting by setting: (18 min) 77.89 and 77.36 and 80 and 75.26 and 74.21; (21 min) 74.73 and 76.84 and 71.57 and 73.68 and 71.05; (24 min) 72.1 and 73.68 and 68.94 and 71.05 and 68.42; (27 min) 70 and 71.57 and 66.84 and 68.94 and 66.31; (30 min) 68.42 and 67.89 and 69.47 and 64.73 and 67.36. Also, the “recrystallization in the course of the dissolution test” value (in words) was “a recrystallization of fenofibrate had been observed”.
